{
  "source": "patent US20020193564A1",
  "about": "“Oligomeric chaperone proteins” (priority 1999, published 2002)",
  "key": {"[1]": {"tested_on": "bacteriophage λ", "experiment": "Growth of bacteriophage λ in transformed groEL strains", "type": "cell-based, bacteriophage λ (b2cI) in E. coli", "text": "The E. Coli strains used in this study were: C41(DE3), a mutant of BL21(DE3) capable of expressing toxic genes (Miroux, B. & Walker, J. E. (1996) J. Mol. Biol. 260, 289-298); SV2 (B178groEL44), SV3 (B178groEL59) and SV6 (B178groEL673): isogenic strains carrying temperature-sensitive alleles of groEL; SV1(=B178) (Georgopoulos, C., Hendrix, R. W., Casjens, S. R. & Kaiser, A. D. (1973) J. Mol. Biol. 76, 45-60), A190 (ΔgroEL::kan^R) [pBAD-EL] (Ivic, A., Olden, D., Wallington, E. J. & Lund, P. A. (1997) Gene 194, 1-8), and TG1 (Gibson, T. J. (1984) Ph.D. thesis, University of Cambridge, U.K). Bacteriophage λb2cI (Zeilstra-Ryalls, J., Fayet, O., Baird, L. & Georgopoulos, C. (1993) J. Bacteriol. 175, 1134-1143) was used according to standard methods (Arber, W., Enquist, L., Hohn, B., Murray, N. E. & Murray, K. (1983) in Lambda II., ed. R. W. Hendrix, J. W. r., F. W. Stahl and R. A. Weisberg (Cold Spring Harbor Laboratory, Cold Spring Harbor, N.Y.), pp. 433-466); plaque formation was assayed at 30° C. T4D0, a derivative of bacteriophage T4 (Zeilstra-Ryalls, J., Fayet, O., Baird, L. & Georgopoulos, C. (1993) J. Bacteriol. 175, 1134-1143), was used according to standard methods (Karam, J. D. (1994) Molecular biology of bacteriophage T4. (American Society for Microbiology, Washington, D.C.)); plaque formation was assayed at 37° C."}, "[2]": {"tested_on": "E. coli SV2 groEL44", "experiment": "In vivo complementation of ts groEL44 at 43° C.", "type": "cell-based", "settings": "plasmids pJC, relative to growth at 30° C.", "protocol": "(§1) In vivo Complementation Experiments.\n(§2) Complementation experiments were performed by transforming electro-competent SV2 or SV6 cells with the pJC series of expression vectors and plating an aliquot of the transformation reactions directly at 43° C. The percentage of viable cells relative to the growth at 30° C. was determined. A representative number of clones which grew at 43° C. were incubated in absence of any selective markers at permissive temperature. After prolonged growth the loss of the pJC plasmids and the ts phenotype were verified. Each experiment was performed in duplicate. Plasmids carrying no groE genes or encoding the GroE proteins were used as negative or positive controls, respectively."}, "[3]": {"tested_on": "E. coli SV6 groEL673", "experiment": "In vivo complementation of ts groEL673 at 43° C.", "type": "cell-based", "settings": "plasmids pJC, relative to growth at 30° C.", "protocol": "as §1, §2"}, "[4]": {"tested_on": "Lorist6 (bacteriophage λ origin vector)", "experiment": "Effect of over-expression on Lorist6 replication", "type": "cell-based, E. coli", "settings": "over-expression from pJC", "protocol": "Effect on Lorist6 Replication of Over-Expressing of MC7.\nThe effect of over-expressing Gp31 proteins from pJC vector series on the replication of the bacteriophage λ origin vector, Lorist6 (Gibson, T. J., Rosenthal, A. & Waterston, R. H. (1987) Gene 53, 283-286) in TG1 (Gibson, T. J. (1984) Ph.D. thesis, University of Cambridge, U.K) or SV1 (Georgopoulos, C., Hendrix, R. W., Casjens, S. R. & Kaiser, A. D. (1973) J. Mol. Biol. 76, 45-60) cells was determined essentially as described (Chatellier, J., Hill, F., Lund, P. & Fersht, A. R. (1998) Proc. Natl. Acad. Sci. U.S.A. 95, 9861-9866)."}, "[5]": {"tested_on": "AI90 (ΔgroEL::kan^R) [pBADEL] E. coli strain", "experiment": "Plating ability of AI90 on GroEL depletion at 37° C.", "type": "cell-based", "protocol": "AI90 (ΔgroEL::kan^R) [pBAD-EL] cells were transformed with the pJC vector series. Transformants were selected at 37° C. on LB supplemented with 50 μg.ml^−1 of kanamycin, 120 μg.mL^−1 of ampicillin, 25 μg.mL^−1 of chloramphenicol and 0.2% L(+)arabinose. Depletion of GroEL protein was analysed at 37° C. by plating the same quantity of AI90 [PBAD-EL+pJC vectors] cells on LB plates containing 1% D(+)glucose or various amount of arabinose.\nEach experiment was performed in triplicate. Plasmids carrying no groE genes or encoding the GroE proteins were used as negative or positive controls, respectively."}, "[6]": {"tested_on": "mutant Huntingdon exon 1-expressing PC12 and SH-SY5Y cells", "experiment": "Inclusion formation and cell death, mutant Huntingdon exon 1", "type": "cell-based", "settings": "overexpression", "text": "These phenomena have been studied by transiently transfecting part of Huntingdon exon 1 in COS-7, PC12, and SH-SY5Y cells. Inclusion formation was not seen with constructs expressing 23 glutamines but was repeat length and time dependent for mutant constructs with 43-74 repeats. HSP70, HSP40, the 20S proteasome and ubiquitin colocalized with inclusions. […] Thus, inclusion formation may be enhanced in polyglutamine diseases, if the pathological process results in proteasome inhibition or a heat-shock response. […] To our knowledge, this is the first report of an HSP increasing aggregation of an abnormally folded protein in mammalian cells and expands the current understanding of the roles of HDJ-2yHSDJ in protein folding (See Wyttenbach, A. et al. (2000) Proc. Natl. Acad. Sci. USA 97, 2899-2903).\nWe have tested MC72 in the same system."}},
  "data": [
    {"substance": "GroEL(1-548): key molecular chaperone in Escherichia coli, 14 subunits of 57.5 kD in two seven membered rings", "values": [
      {"measurement": "Growth of bacteriophage λ, SV1 (groEL^+)", "setting": "[1]; 30° C., SV1", "result": "− (no visible plaques (<10^−4))"},
      {"measurement": "Growth of bacteriophage λ, SV2 groEL44", "setting": "[1]; 30° C., SV2", "result": "+ (10-fold fewer plaques, or plaque size reduced relative to wild-type groEL^+ strain, or both)"},
      {"measurement": "Growth of bacteriophage λ, SV3 GroEL59", "setting": "[1]; 30° C., SV3", "result": "++ (5-fold fewer plaques relative to wild-type groEL^+ strain, or both)"},
      {"measurement": "Growth of bacteriophage λ, SV6 groEL673", "setting": "[1]; 30° C., SV6", "result": "+/− (10^2-fold fewer plaques and plaque size reduced relative to wild-type groEL^+ strain)"},
      {"measurement": "Complementation of groEL mutant strains for bacteriophage λ growth", "setting": "[1]; 30° C., groEL mutant strains", "result": "weak complementation"},
      {"measurement": "Effect of over-expression on λ growth / plaque counts", "setting": "[1]; SV1 (groE^+)", "result": "suffices to inhibit λ growth"},
      {"measurement": "Relative colony forming ability, SV2 groEL44", "setting": "[2]", "result": 1},
      {"measurement": "Relative colony forming ability, SV6 groEL673", "setting": "[3]", "result": 1},
      {"measurement": "replication of the Lorist6 plasmid", "setting": "[4]", "result": "inhibit the replication"},
      {"measurement": "Plating ability, 0.00 % L(+)arabinose", "setting": "[5]; 0.00% arabinose", "result": "+++ (growth identical to that in presence of 0.2% L(+)arabinose (100%), in terms of both number and size)"},
      {"measurement": "Plating ability, 0.01 % L(+)arabinose", "setting": "[5]; 0.01% arabinose", "result": "+++ (growth identical to that in presence of 0.2% L(+)arabinose (100%), in terms of both number and size)"},
      {"measurement": "Plating ability, 0.10 % L(+)arabinose", "setting": "[5]; 0.10% arabinose", "result": "+++ (growth identical to that in presence of 0.2% L(+)arabinose (100%), in terms of both number and size)"},
      {"measurement": "Plating ability, 0.15 % L(+)arabinose", "setting": "[5]; 0.15% arabinose", "result": "+++ (growth identical to that in presence of 0.2% L(+)arabinose (100%), in terms of both number and size)"},
      {"measurement": "cell death", "setting": "[6]", "result": "no effect"},
      {"measurement": "inclusion formation", "setting": "[6]", "result": "no effect"}
    ]}
  ]
}
